Literature values, collected in PMC7373161, “Impact of Food and Drink Administration Vehicles on Paediatric Formulation Performance: Part 1—Effects on Solubility of Poorly Soluble Drugs” (AAPS PharmSciTech, 2020).

- isoelectric point (pI): 4.3 pH
Structure (SMILES): Nc1ccc(O)c(C(=O)O)c1 [mesalazine]
